The text below walks through data of PubChem BioAssay (NCI).

“And” between values parts separate entries of the source, which are not always exact repeats. Identical values can stand only once.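 Method: 48-hour compound exposure of cells in 96-well plates, five concentrations, linear interpolation of endpoints. GI50: concentration for 50% inhibition of growth. The concentration for full growth arrest is given as TGI.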 Some results are limits rather than exact numbers.

Test systems include HS 578T breast; SK-MEL-2 melanoma; ACHN renal; MCF7 breast; OVCAR-8 ovarian; SK-MEL-28 melanoma; EKVX NSCLC; SF-268 CNS; HCT-15 colon; SK-MEL-5 melanoma.
Holding throughout (assay): growth of human tumour cells (NCI), 48 h

For the compound `[CH3][Sn]([CH3])([CH3])[O][N+](=O)[O-]`, the GI50 in the test on HS 578T breast is 1.73 µM; in the test with SK-MEL-2 melanoma, 5.1 µM; with ACHN renal, above 10 µM; in the test with MCF7 breast it was 2.87 µM; with OVCAR-8 ovarian it was 3.6 µM; with SK-MEL-28 melanoma it was above 10 µM. For the same compound, the GI50 with EKVX NSCLC was above 10 µM; with SF-268 CNS, 3.63 µM; in the test with HCT-15 colon it was 2 µM; with SK-MEL-5 melanoma, 1.52 µM. In addition, the TGI in the test with HS 578T breast, in the test with SK-MEL-2 melanoma, in the test with ACHN renal, with MCF7 breast, in the test on OVCAR-8 ovarian and with SK-MEL-28 melanoma was above 10 µM throughout. Moreover, the TGI in the test on EKVX NSCLC is above 10 µM; in the test on SF-268 CNS, above 10 µM; in the test on HCT-15 colon, 4.13 µM; in the test with SK-MEL-5 melanoma, 2.97 µM.

As for `C/C(=N/Nc1nc(C)cc(=O)[nH]1)C(=O)O`, the TGI in the test with HS 578T breast, in the test with SK-MEL-2 melanoma, with ACHN renal, in the test on MCF7 breast, in the test on OVCAR-8 ovarian and with SK-MEL-28 melanoma was above 100 µM each time. The TGI in the test on EKVX NSCLC, with SF-268 CNS, in the test with HCT-15 colon and with SK-MEL-5 melanoma was above 100 µM in each case.

In the case of `Nc1ccc(Sc2c3ccccc3nc3ccccc23)cc1`, the TGI with HS 578T breast is above 68.4 µM; in the test with SK-MEL-2 melanoma it was 34.1 µM; in the test on ACHN renal, 28.3 µM; with MCF7 breast, 28.8 µM; with OVCAR-8 ovarian, 28.6 µM; in the test on SK-MEL-28 melanoma, 24.8 µM. For the same compound, the TGI with EKVX NSCLC was found to be 58.9 µM; in the test with SF-268 CNS, 40.5 µM; with HCT-15 colon, 36.7 µM; with SK-MEL-5 melanoma, 30.6 µM.

In the case of `O=[N+]([O-])c1cc2c([N+](=O)[O-])cccc2o1`, the TGI in the test with HS 578T breast amounted to 43.8 µM; in the test on SK-MEL-2 melanoma it was 25.4 µM; with ACHN renal it was 10.6 µM; with MCF7 breast it was 13.8 µM; in the test with OVCAR-8 ovarian it was 38.8 µM; in the test on SK-MEL-28 melanoma, 16.8 µM. Also, the TGI in the test on EKVX NSCLC came out at 6.25 µM; in the test on SF-268 CNS, 31.1 µM; in the test with HCT-15 colon it was 23 µM; with SK-MEL-5 melanoma, 33.2 µM.

Take `C[C@@H](Oc1cc(-n2cnc3ccc(OC[C@@H](O)CO)cc32)sc1C(N)=O)c1ccccc1Cl`: the GI50 in the test on HS 578T breast was 0.171 µM; in the test on SK-MEL-2 melanoma it was 4.76 µM; with ACHN renal, 6.11 µM; in the test with MCF7 breast, 0.025 µM; in the test with OVCAR-8 ovarian it was 0.109 µM; in the test on SK-MEL-28 melanoma, 0.229 µM. The GI50 in the test with EKVX NSCLC is 1.75 µM; in the test with SF-268 CNS, 0.164 µM; in the test with HCT-15 colon, 1.88 µM; in the test with SK-MEL-5 melanoma, 0.326 µM. In addition, the TGI in the test with HS 578T breast is 5.31 µM; in the test with SK-MEL-2 melanoma, 11.1 µM; with ACHN renal, above 25 µM; with MCF7 breast, above 25 µM; in the test on OVCAR-8 ovarian, above 25 µM; in the test with SK-MEL-28 melanoma it was above 25 µM. Besides, the TGI in the test with EKVX NSCLC is above 25 µM; in the test on SF-268 CNS it was above 25 µM; in the test with HCT-15 colon, above 25 µM; with SK-MEL-5 melanoma it was 5.14 µM.

As to `Cc1ccc(S(=O)(=O)N2CCc3ccc(O)c4c3C2Cc2ccc3c(c2-4)OCO3)cc1` (stereo not drawn), the GI50 is 1.06 µM in the test on HS 578T breast; 1.34 µM with SK-MEL-2 melanoma; 0.769 µM in the test on ACHN renal; 0.317 µM in the test on MCF7 breast; 1.41 µM in the test with OVCAR-8 ovarian; 0.668 µM in the test with SK-MEL-28 melanoma. Besides, the GI50 in the test with EKVX NSCLC was 4.34 µM; in the test with SF-268 CNS it was 1.01 µM; in the test on HCT-15 colon it was 0.583 µM; with SK-MEL-5 melanoma, 0.486 µM. Moreover, the TGI in the test with HS 578T breast was above 50.6 µM; in the test with SK-MEL-2 melanoma, 7.33 µM; in the test with ACHN renal, above 60.8 µM; in the test on MCF7 breast, 10.2 µM; with OVCAR-8 ovarian, 20.7 µM; in the test with SK-MEL-28 melanoma, 18.6 µM. Besides, the TGI is above 100 µM in the test with EKVX NSCLC, 23.3 µM with SF-268 CNS, above 35.1 µM in the test on HCT-15 colon and 2.18 µM in the test with SK-MEL-5 melanoma.

For the compound `Cc1ccc(OCC2OC(n3cnc4c(Br)nc(Br)nc43)CC2Oc2ccc(C)cc2)cc1` (stereo not drawn), the GI50 with HS 578T breast was 14.4 µM and 2.96 µM; in the test with SK-MEL-2 melanoma it was 14.1 µM; in the test on ACHN renal, 5.29 µM; in the test on MCF7 breast, 2.52 µM; in the test with OVCAR-8 ovarian, 18.2 µM; in the test on EKVX NSCLC, 1.52 µM. Also, the results for the GI50 with HCT-15 colon and with SK-MEL-5 melanoma were 1.45 µM and 13.4 µM, respectively. Moreover, the TGI is 36 µM and 7.18 µM in the test on HS 578T breast; 28.3 µM and 8.15 µM with SK-MEL-2 melanoma; 14.8 µM and 4.93 µM with ACHN renal; 8.4 µM and 30.3 µM in the test with MCF7 breast; 42.7 µM and 14.3 µM with OVCAR-8 ovarian; 10.1 µM in the test with SK-MEL-28 melanoma. The TGI in the test on EKVX NSCLC is 3.25 µM and 4.15 µM; in the test with SF-268 CNS, 25.4 µM; in the test with HCT-15 colon, 3.24 µM and 4.73 µM; in the test with SK-MEL-5 melanoma, 23.8 µM and 23.7 µM.

In the case of `CCn1ccc(NS(=O)(=O)c2ccc(N)cc2)nc1=O`, the GI50 with HS 578T breast is 33.8 µM; in the test on SK-MEL-2 melanoma it was above 100 µM; in the test with ACHN renal, above 100 µM; in the test on MCF7 breast, above 100 µM; with OVCAR-8 ovarian, above 100 µM; in the test with SK-MEL-28 melanoma, above 100 µM. Besides, the GI50 with EKVX NSCLC, in the test on SF-268 CNS, in the test on HCT-15 colon and in the test on SK-MEL-5 melanoma was above 100 µM in each case. The TGI with HS 578T breast, in the test on SK-MEL-2 melanoma, with ACHN renal, with MCF7 breast, in the test with OVCAR-8 ovarian and in the test on SK-MEL-28 melanoma was above 100 µM in each case. Moreover, the TGI in the test with EKVX NSCLC, with SF-268 CNS, with HCT-15 colon and with SK-MEL-5 melanoma was above 100 µM in each case.

`FC(F)(F)c1cc(Nc2ccc3cc(OCCCN4CCOCC4)ccc3n2)ccc1Cl`: the GI50 in the test on HS 578T breast is 1.68 µM; in the test with SK-MEL-2 melanoma, 1.99 µM; with ACHN renal, 2.05 µM; in the test on MCF7 breast it was 1.51 µM; in the test with OVCAR-8 ovarian it was 2.87 µM; in the test with SK-MEL-28 melanoma it was 1.59 µM. Also, the GI50 in the test on EKVX NSCLC is 2.3 µM; with SF-268 CNS, 1.9 µM; in the test with HCT-15 colon it was 1.28 µM; in the test on SK-MEL-5 melanoma, 1.64 µM. Moreover, the TGI in the test on HS 578T breast was found to be 4.36 µM; in the test with SK-MEL-2 melanoma it was 3.88 µM; in the test with ACHN renal it was 4.86 µM; in the test on MCF7 breast it was 3.56 µM; in the test on OVCAR-8 ovarian, 10 µM; with SK-MEL-28 melanoma, 3.39 µM. Also, the TGI with EKVX NSCLC worked out at 6.21 µM; in the test with SF-268 CNS it was 4.71 µM; with HCT-15 colon, 3.08 µM; with SK-MEL-5 melanoma, 3.16 µM.
